Experimental data published in ChEMBL document CHEMBL4152249, “Alkoxyphenylthiazoles with broad-spectrum activity against multidrug-resistant gram-positive bacterial pathogens” (Eur J Med Chem, 2018).
Values after ≈ are worked out from the molar mass of the structure shown. Active and inactive are the calls of the source. The calls are words filed in the database; no cut-off is given here.

How the values were obtained:
Staphylococcus aureus [1] = assay: Antibacterial activity against methicillin-resistant Staphylococcus aureus after 20 hrs by broth microdilution assay; format: functional
Staphylococcus aureus [2] = assay: Bactericidal activity against vancomycin-resistant Staphylococcus aureus VRSA10 incubated for 20 hrs followed by re-plating on tryptic soy agar plates at 37 degC for 18 hrs by broth microdilution assay; format: functional
Staphylococcus aureus [3] = assay: Bactericidal activity against Staphylococcus aureus USA400 NRS123 incubated for 20 hrs followed by re-plating on tryptic soy agar plates at 37 degC for 18 hrs by broth microdilution assay; format: functional
[4] = Clearance in Sprague-Dawley rat at 5 uM, iv administered as single bolus dose by LC-MS/MS analysis; format: ADME, organism-based; details: in vivo
Enterococcus faecalis [5] = assay: Bactericidal activity against vancomycin-resistant Enterococcus faecalis ATCC 51299 incubated for 20 hrs followed by re-plating on tryptic soy agar plates at 37 degC for 18 hrs by broth microdilution assay; format: functional
Streptococcus pneumoniae [6] = assay: Antibacterial activity against methicillin-resistant Streptococcus pneumoniae ATCC 700677 after 20 hrs by broth microdilution assay; format: functional; details: ATCC 700677, 20 h
Staphylococcus aureus [7] = assay: Bactericidal activity against methicillin-resistant Staphylococcus aureus NRS385 incubated for 20 hrs followed by re-plating on tryptic soy agar plates at 37 degC for 18 hrs by broth microdilution assay; format: functional
Staphylococcus aureus [8] = assay: Bactericidal activity against methicillin-resistant Staphylococcus aureus NRS386 incubated for 20 hrs followed by re-plating on tryptic soy agar plates at 37 degC for 18 hrs by broth microdilution assay; format: functional
[9] = Selectivity index, ratio of compound effect for human Caco2 cells at maximum non-toxic concentration concentration to MIC for methicillin-resistant Staphylococcus epidermidis NRS101; format: toxicity; details: Caco-2 cells, read-out: Selectivity Index
[10] = Selectivity index, ratio of compound effect for human Caco2 cells at maximum non-toxic concentration concentration to MIC for vancomycin-resistant Enterococcus faecalis ATCC 51299; format: toxicity; details: Caco-2 cells, read-out: Selectivity Index
[11] = Selectivity index, ratio of compound effect for human Caco2 cells at maximum non-toxic concentration concentration to MIC for methicillin-resistant Streptococcus pneumoniae ATCC 700677; format: toxicity; details: Caco-2 cells, read-out: Selectivity Index
Staphylococcus aureus [12] = assay: Antibacterial activity against methicillin-resistant Staphylococcus aureus 2658 RCMB after 20 hrs by broth microdilution assay; format: functional
[13] = AUC in Sprague-Dawley rat at 5 uM, iv administered as single bolus dose by LC-MS/MS analysis; format: ADME, organism-based; details: in vivo
Staphylococcus aureus [14] = assay: Bactericidal activity against Staphylococcus aureus USA300 NRS384 incubated for 20 hrs followed by re-plating on tryptic soy agar plates at 37 degC for 18 hrs by broth microdilution assay; format: functional
[15] = Selectivity index, ratio of compound effect for human Caco2 cells at maximum non-toxic concentration concentration to MIC for cephalosporin-resistant Streptococcus pneumoniae ATCC 51916; format: toxicity; details: Caco-2 cells, read-out: Selectivity Index
Staphylococcus aureus [16] = assay: Bactericidal activity against vancomycin-resistant Staphylococcus aureus VRSA12 incubated for 20 hrs followed by re-plating on tryptic soy agar plates at 37 degC for 18 hrs by broth microdilution assay; format: functional
Staphylococcus aureus [17] = assay: Antibacterial activity against Staphylococcus aureus after 20 hrs by broth microdilution assay; format: functional
Staphylococcus aureus [18] = assay: Antibacterial activity against methicillin-resistant Staphylococcus aureus NRS385 after 20 hrs by broth microdilution assay; format: functional; details: NRS385, 20 h
Staphylococcus aureus [19] = assay: Bactericidal activity against methicillin-sensitive Staphylococcus aureus NRS107 incubated for 20 hrs followed by re-plating on tryptic soy agar plates at 37 degC for 18 hrs by broth microdilution assay; format: functional
Staphylococcus aureus [20] = assay: Bactericidal activity against Staphylococcus aureus USA400 assessed as reduction in colony forming unit at 3 to 6 times MIC treated for 2 hrs followed by re-plating on tryptic soy agar plates at 37 degC for 18 to 20 hrs by broth microdilution assay; format: functional; parameters: scale not given: the % may be the effect or the level left
Enterococcus faecium [21] = assay: Bactericidal activity against vancomycin-resistant Enterococcus faecium ATCC 700221 incubated for 20 hrs followed by re-plating on tryptic soy agar plates at 37 degC for 18 hrs by broth microdilution assay; format: functional
Streptococcus pneumoniae [22] = assay: Ratio of MBC to MIC for methicillin-resistant Streptococcus pneumoniae ATCC 700677; format: functional
[23] = Selectivity index, ratio of compound effect for human Caco2 cells at maximum non-toxic concentration concentration to MIC for vancomycin-resistant Enterococcus faecium ATCC 700221; format: toxicity; details: Caco-2 cells, read-out: Selectivity Index
[24] = Selectivity index, ratio of compound effect for human Caco2 cells at maximum non-toxic concentration concentration to MIC for Listeria monocytogenes ATCC 19111; format: toxicity; details: Caco-2 cells, read-out: Selectivity Index
Enterococcus faecalis [25] = assay: Antibacterial activity against vancomycin-resistant Enterococcus faecalis ATCC 51299 after 20 hrs by broth microdilution assay; format: functional; details: ATCC 51299, 20 h
Streptococcus pneumoniae [26] = assay: Bactericidal activity against cephalosporin-resistant Streptococcus pneumoniae ATCC 51916 incubated for 20 hrs followed by re-plating on tryptic soy agar plates at 37 degC for 18 hrs by broth microdilution assay; format: functional
Staphylococcus aureus [27] = assay: Bactericidal activity against linezolid-resistant Staphylococcus aureus NRS119 incubated for 20 hrs followed by re-plating on tryptic soy agar plates at 37 degC for 18 hrs by broth microdilution assay; format: functional
Streptococcus pneumoniae [28] = assay: Bactericidal activity against methicillin-resistant Streptococcus pneumoniae ATCC 700677 incubated for 20 hrs followed by re-plating on tryptic soy agar plates at 37 degC for 18 hrs by broth microdilution assay; format: functional
[29] = Terminal phase volume of distribution at […] in Sprague-Dawley rat at 5 uM, iv administered as single bolus dose by LC-MS/MS analysis; format: ADME, organism-based; details: in vivo, read-out: Vbeta
[30] = Volume of distribution at steady state in Sprague-Dawley rat at 5 uM, iv administered as single bolus dose by LC-MS/MS analysis; format: ADME, organism-based; details: in vivo, read-out: Vdss
Listeria monocytogenes [31] = assay: Bactericidal activity against Listeria monocytogenes ATCC 19111 incubated for 20 hrs followed by re-plating on tryptic soy agar plates at 37 degC for 18 hrs by broth microdilution assay; format: functional
[32] = tested on: Staphylococcus epidermidis; assay: Antibacterial activity against methicillin-resistant Staphylococcus epidermidis NRS101 after 20 hrs by broth microdilution assay; format: functional; details: NRS101, 20 h
[33] = Half life in Sprague-Dawley rat at 5 uM, iv administered as single bolus dose by LC-MS/MS analysis; format: ADME, organism-based; details: in vivo
Staphylococcus aureus [34] = assay: Antibacterial activity against vancomycin-resistant Staphylococcus aureus VRSA10 after 20 hrs by broth microdilution assay; format: functional; details: VRSA10, 20 h
Streptococcus pneumoniae [35] = assay: Antibacterial activity against cephalosporin-resistant Streptococcus pneumoniae ATCC 51916 after 20 hrs by broth microdilution assay; format: functional; details: ATCC 51916, 20 h
Enterococcus faecium [36] = assay: Antibacterial activity against vancomycin-resistant Enterococcus faecium ATCC 700221 after 20 hrs by broth microdilution assay; format: functional; details: ATCC 700221, 20 h
Staphylococcus aureus [37] = assay: Antibacterial activity against vancomycin-resistant Staphylococcus aureus VRSA12 after 20 hrs by broth microdilution assay; format: functional; details: VRSA12, 20 h
Staphylococcus aureus [38] = assay: Antibacterial activity against methicillin-resistant Staphylococcus aureus NRS386 after 20 hrs by broth microdilution assay; format: functional; details: NRS386, 20 h
[39] = tested on: Staphylococcus epidermidis; assay: Bactericidal activity against methicillin-resistant Staphylococcus epidermidis NRS101 incubated for 20 hrs followed by re-plating on tryptic soy agar plates at 37 degC for 18 hrs by broth microdilution assay; format: functional
Staphylococcus aureus [40] = assay: Antibacterial activity against methicillin-resistant Staphylococcus aureus USA400 NRS123 after 14 passages over 2 weeks by broth microdilution method; format: functional, organism-based
Listeria monocytogenes [41] = assay: Antibacterial activity against Listeria monocytogenes ATCC 19111 after 20 hrs by broth microdilution assay; format: functional; details: ATCC 19111, 20 h
Caco-2 = assay: Cytotoxicity against human Caco2 cells assessed as effect on cell viability up to 64 ug/ml after 2 hrs by MTS assay; format: cell-based; details: caco-2, 2 h

CCCCCCCOc1ccc(-c2nc(C)c(-c3ccnc(NC(=N)N(C)C)n3)s2)cc1 showed an MIC (Staphylococcus aureus [1]) of 4 to 8 µg/mL (≈ 8.84 to 17.7 µM), an MBC (Staphylococcus aureus [2]) of 4 µg/mL (≈ 8.84 µM) and an MBC (Staphylococcus aureus [3]) of 8 µg/mL (≈ 17.7 µM). The clearance at 5 µM [4] was 29.2 mL/min, the MBC (Enterococcus faecalis [5]) was 8 µg/mL (≈ 17.7 µM) and the MIC (Streptococcus pneumoniae [6]) was 4 µg/mL (≈ 8.84 µM). The MBC (Staphylococcus aureus [7]) was 8 µg/mL (≈ 17.7 µM), the MBC (Staphylococcus aureus [8]) was 4 µg/mL (≈ 8.84 µM) and the selectivity ratio [9] was 7 to 82. For the same compound, the selectivity ratio [10] was 7 to 82, the selectivity ratio [11] was 7 to 82 and the MIC (Staphylococcus aureus [12]) was 1.56 µg/mL (≈ 3.45 µM). It also gave an AUC at 5 µM [13] of 1140 ng·h/mL, an MBC (Staphylococcus aureus [14]) of 4 µg/mL (≈ 8.84 µM) and a selectivity ratio [15] of 7 to 82. It also gave an MBC (Staphylococcus aureus [16]) of 4 µg/mL (≈ 8.84 µM), an MIC (Staphylococcus aureus [17]) of 4 µg/mL (≈ 8.84 µM) and an MIC (Staphylococcus aureus [18]) of 8 µg/mL (≈ 17.7 µM). The MBC (Staphylococcus aureus [19]) was 4 µg/mL (≈ 8.84 µM), the Activity (Staphylococcus aureus [20]) was 100% and the MBC (Enterococcus faecium [21]) was 8 µg/mL (≈ 17.7 µM). It also gave a Ratio (Streptococcus pneumoniae [22]) of 1, a selectivity ratio [23] of 7 to 82 and a selectivity ratio [24] of 7 to 82. For the same compound, the MIC (Enterococcus faecalis [25]) was 8 µg/mL (≈ 17.7 µM), the MBC (Streptococcus pneumoniae [26]) was 8 µg/mL (≈ 17.7 µM) and the MBC (Staphylococcus aureus [27]) was 8 µg/mL (≈ 17.7 µM). For the same compound, the MBC (Streptococcus pneumoniae [28]) was 8 µg/mL (≈ 17.7 µM), the Vd at 5 µM [29] was 10.4 L and the Vd at 5 µM [30] was 4.36 L. It also gave an MBC (Listeria monocytogenes [31]) of 4 µg/mL (≈ 8.84 µM), an MIC [32] of 4 µg/mL (≈ 8.84 µM) and a half-life at 5 µM [33] of 240 min. It also gave an MIC (Staphylococcus aureus [34]) of 4 µg/mL (≈ 8.84 µM), an MIC (Streptococcus pneumoniae [35]) of 8 µg/mL (≈ 17.7 µM) and an MIC (Enterococcus faecium [36]) of 8 µg/mL (≈ 17.7 µM). For the same compound, the MIC (Staphylococcus aureus [37]) was 4 µg/mL (≈ 8.84 µM), the MIC (Staphylococcus aureus [38]) was 4 µg/mL (≈ 8.84 µM) and the MBC [39] was 4 µg/mL (≈ 8.84 µM). For the same compound, the Activity (Staphylococcus aureus [40]) was “Active”, the MIC (Listeria monocytogenes [41]) was 4 µg/mL (≈ 8.84 µM) and the Activity (Caco-2) was “Non-Toxic”.
Work on CCCCCCCCOc1ccc(-c2nc(C)c(-c3ccnc(NC(=N)N4CCN(C)CC4)n3)s2)cc1 yielded an MIC (Staphylococcus aureus [1]) of 16 to 32 µg/mL (≈ 30.7 to 61.3 µM), an MBC (Staphylococcus aureus [2]) of 8 µg/mL (≈ 15.3 µM) and an MBC (Staphylococcus aureus [3]) of 32 µg/mL (≈ 61.3 µM). It also gave an MBC (Enterococcus faecalis [5]) of 64 µg/mL (≈ 123 µM), an MIC (Streptococcus pneumoniae [6]) of 16 µg/mL (≈ 30.7 µM) and an MBC (Staphylococcus aureus [7]) of 16 µg/mL (≈ 30.7 µM). For the same compound, the MBC (Staphylococcus aureus [8]) was 16 µg/mL (≈ 30.7 µM), the MIC (Staphylococcus aureus [12]) was 0.78 µg/mL (≈ 1.5 µM) and the MBC (Staphylococcus aureus [14]) was 16 µg/mL (≈ 30.7 µM). It also gave an MBC (Staphylococcus aureus [16]) of 16 µg/mL (≈ 30.7 µM), an MIC (Staphylococcus aureus [17]) of 16 µg/mL (≈ 30.7 µM) and an MIC (Staphylococcus aureus [18]) of 16 µg/mL (≈ 30.7 µM). It also gave an MBC (Staphylococcus aureus [19]) of over 64 µg/mL, an MBC (Enterococcus faecium [21]) of 16 µg/mL (≈ 30.7 µM) and an MIC (Enterococcus faecalis [25]) of 16 µg/mL (≈ 30.7 µM). For the same compound, the MBC (Streptococcus pneumoniae [26]) was 32 µg/mL (≈ 61.3 µM), the MBC (Staphylococcus aureus [27]) was 32 µg/mL (≈ 61.3 µM) and the MBC (Streptococcus pneumoniae [28]) was 32 µg/mL (≈ 61.3 µM). For the same compound, the MBC (Listeria monocytogenes [31]) was 8 µg/mL (≈ 15.3 µM), the MIC [32] was 8 µg/mL (≈ 15.3 µM) and the MIC (Staphylococcus aureus [34]) was 8 µg/mL (≈ 15.3 µM). For the same compound, the MIC (Streptococcus pneumoniae [35]) was 32 µg/mL (≈ 61.3 µM), the MIC (Enterococcus faecium [36]) was 16 µg/mL (≈ 30.7 µM) and the MIC (Staphylococcus aureus [37]) was 16 µg/mL (≈ 30.7 µM). It also gave an MIC (Staphylococcus aureus [38]) of 16 µg/mL (≈ 30.7 µM), an MBC [39] of 8 µg/mL (≈ 15.3 µM) and an MIC (Listeria monocytogenes [41]) of 4 µg/mL (≈ 7.67 µM). The Activity (Caco-2) was “Non-Toxic”.
In the case of CCCCCCCCOc1ccc(-c2nc(C)c(-c3ccnc(N4CC(O)C4)n3)s2)cc1, the MIC (Staphylococcus aureus [12]) is reported as 6.25 µg/mL (≈ 13.8 µM).
CCCCCCCCOc1ccc(-c2nc(C)c(-c3ccnc(NC)n3)s2)cc1 gave an MIC (Staphylococcus aureus [12]) of over 50 µg/mL.
Work on CCCCCCCOc1ccc(-c2nc(C)c(-c3ccnc(NC(=N)N)n3)s2)cc1 yielded an MIC (Staphylococcus aureus [12]) of 1.56 µg/mL (≈ 3.67 µM).
